Experimental data as given in the NIST ThermoML archive (doi:10.1021/je800017j).

Test: xn = mol fraction of the nth substance listed
Conditions: Liquid, Vibrating tube method

C=CC [propene] + CC(C)O
Conditions | mass density [kg/m3]
325.09 K, 5370.7 kPa, x1 = 0.2011 | 709.32
325.09 K, 5883.5 kPa, x1 = 0.2011 | 709.98
325.09 K, 6336.2 kPa, x1 = 0.2011 | 710.58
325.09 K, 6788.4 kPa, x1 = 0.2011 | 711.17
325.09 K, 7346.6 kPa, x1 = 0.2011 | 711.9
325.09 K, 7879.3 kPa, x1 = 0.2011 | 712.57
325.09 K, 8392.5 kPa, x1 = 0.2011 | 713.18
325.09 K, 8985.2 kPa, x1 = 0.2011 | 713.89
325.09 K, 9587.7 kPa, x1 = 0.2011 | 714.65
325.13 K, 1747.5 kPa, x1 = 0.6478 | 573.29
325.13 K, 2151.8 kPa, x1 = 0.6478 | 574.52
325.13 K, 2607.5 kPa, x1 = 0.6478 | 575.84
325.13 K, 3022.1 kPa, x1 = 0.6478 | 577
325.13 K, 3422.7 kPa, x1 = 0.6478 | 578.16
325.13 K, 3826.3 kPa, x1 = 0.6478 | 579.23
325.13 K, 4289 kPa, x1 = 0.6478 | 580.41
325.13 K, 4682.5 kPa, x1 = 0.6478 | 581.48
325.13 K, 5094.6 kPa, x1 = 0.6478 | 582.53
325.13 K, 5524.8 kPa, x1 = 0.6478 | 583.59
325.13 K, 5972.2 kPa, x1 = 0.6478 | 584.68
325.13 K, 6431 kPa, x1 = 0.6478 | 585.75
325.13 K, 6923.3 kPa, x1 = 0.6478 | 586.94
325.13 K, 7433.5 kPa, x1 = 0.6478 | 588.03
325.13 K, 7935 kPa, x1 = 0.6478 | 589.22
325.13 K, 8459.9 kPa, x1 = 0.6478 | 590.39
325.13 K, 9024 kPa, x1 = 0.6478 | 591.62
325.13 K, 9558.5 kPa, x1 = 0.6478 | 592.78
350.12 K, 2332.3 kPa, x1 = 0.5201 | 576.59
350.12 K, 2731.4 kPa, x1 = 0.5201 | 577.92
350.12 K, 2992.4 kPa, x1 = 0.5201 | 578.85
350.12 K, 3218 kPa, x1 = 0.5201 | 579.68
350.12 K, 3506.1 kPa, x1 = 0.5201 | 580.58
350.12 K, 3765.6 kPa, x1 = 0.5201 | 581.46
350.12 K, 4225.5 kPa, x1 = 0.5201 | 582.95
350.12 K, 4550.6 kPa, x1 = 0.5201 | 583.87
350.12 K, 4824.4 kPa, x1 = 0.5201 | 584.73
350.12 K, 5103.7 kPa, x1 = 0.5201 | 585.64
350.12 K, 5399.3 kPa, x1 = 0.5201 | 586.54
350.12 K, 5715.5 kPa, x1 = 0.5201 | 587.44
350.12 K, 5999.5 kPa, x1 = 0.5201 | 588.29
350.12 K, 6303.9 kPa, x1 = 0.5201 | 589.18
350.12 K, 6632.8 kPa, x1 = 0.5201 | 590.1
350.12 K, 6975.5 kPa, x1 = 0.5201 | 591.05
350.12 K, 7280 kPa, x1 = 0.5201 | 591.94
350.12 K, 7641.3 kPa, x1 = 0.5201 | 592.87
350.12 K, 7963.5 kPa, x1 = 0.5201 | 593.76
350.12 K, 8312 kPa, x1 = 0.5201 | 594.68
350.12 K, 8762.4 kPa, x1 = 0.5201 | 595.82
350.12 K, 9211 kPa, x1 = 0.5201 | 596.88
350.12 K, 9622.9 kPa, x1 = 0.5201 | 597.92
350.18 K, 1639.5 kPa, x1 = 0.2011 | 677.13
350.18 K, 2070 kPa, x1 = 0.2011 | 677.93
350.18 K, 2446.2 kPa, x1 = 0.2011 | 678.64
350.18 K, 2689 kPa, x1 = 0.6478 | 531.01
350.18 K, 2924.3 kPa, x1 = 0.2011 | 679.5
350.18 K, 3126.3 kPa, x1 = 0.6478 | 533.02
350.18 K, 3271.4 kPa, x1 = 0.2011 | 680.17
350.18 K, 3675.3 kPa, x1 = 0.2011 | 680.86
350.18 K, 3686.2 kPa, x1 = 0.6478 | 535.68
350.18 K, 3914.3 kPa, x1 = 0.6478 | 536.74
350.18 K, 4058.4 kPa, x1 = 0.2011 | 681.6
350.18 K, 4203.2 kPa, x1 = 0.6478 | 537.97
350.18 K, 4446.8 kPa, x1 = 0.2011 | 682.32
350.18 K, 4484.6 kPa, x1 = 0.6478 | 539.15
350.18 K, 4738.5 kPa, x1 = 0.6478 | 540.5
350.18 K, 4791.3 kPa, x1 = 0.2011 | 682.93
350.18 K, 5023.4 kPa, x1 = 0.6478 | 541.63
350.18 K, 5171.9 kPa, x1 = 0.2011 | 683.6
350.18 K, 5321.2 kPa, x1 = 0.6478 | 542.86
350.18 K, 5557.4 kPa, x1 = 0.2011 | 684.26
350.18 K, 5614 kPa, x1 = 0.6478 | 543.95
350.18 K, 5938.9 kPa, x1 = 0.6478 | 545.1
350.18 K, 6002 kPa, x1 = 0.2011 | 684.96
350.18 K, 6268.4 kPa, x1 = 0.6478 | 546.35
350.18 K, 6430.2 kPa, x1 = 0.2011 | 685.69
350.18 K, 6622.1 kPa, x1 = 0.6478 | 547.76
350.18 K, 6978.6 kPa, x1 = 0.6478 | 548.98
350.18 K, 7071.2 kPa, x1 = 0.2011 | 686.73
350.18 K, 7362 kPa, x1 = 0.6478 | 550.27
350.18 K, 7570.5 kPa, x1 = 0.2011 | 687.62
350.18 K, 7736.5 kPa, x1 = 0.6478 | 551.56
350.18 K, 7944.1 kPa, x1 = 0.2011 | 688.25
350.18 K, 8126.2 kPa, x1 = 0.6478 | 552.91
350.18 K, 8386.8 kPa, x1 = 0.2011 | 688.92
350.18 K, 8525.5 kPa, x1 = 0.6478 | 554.11
350.18 K, 8826.8 kPa, x1 = 0.2011 | 689.6
350.18 K, 8979.8 kPa, x1 = 0.6478 | 555.58
350.18 K, 9279 kPa, x1 = 0.2011 | 690.38
350.18 K, 9488 kPa, x1 = 0.6478 | 557.04
350.18 K, 9779.6 kPa, x1 = 0.2011 | 691.08
350.18 K, 9989.8 kPa, x1 = 0.6478 | 558.59

Conditions | mass density [kg/m3]
325.09 K, x1 = 0.2011 | 703.01
325.13 K, x1 = 0.6478 | 573.24
350.12 K, x1 = 0.5201 | 575.99
350.18 K, x1 = 0.2011 | 676.38
350.18 K, x1 = 0.6478 | 530.66
